Biological target: T1, Human complement C1s enzyme (Homo sapiens, UniProt P09871)
T1 sequence (P09871 438-688 limits assumed): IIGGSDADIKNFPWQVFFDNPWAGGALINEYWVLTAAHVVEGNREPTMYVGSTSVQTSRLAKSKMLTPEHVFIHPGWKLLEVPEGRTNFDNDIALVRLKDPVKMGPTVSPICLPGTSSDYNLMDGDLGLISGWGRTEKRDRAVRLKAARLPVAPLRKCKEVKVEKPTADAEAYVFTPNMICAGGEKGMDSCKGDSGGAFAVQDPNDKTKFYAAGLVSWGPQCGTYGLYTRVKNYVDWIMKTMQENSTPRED
T1 sequence (P09871 16-437 partner limits assumed): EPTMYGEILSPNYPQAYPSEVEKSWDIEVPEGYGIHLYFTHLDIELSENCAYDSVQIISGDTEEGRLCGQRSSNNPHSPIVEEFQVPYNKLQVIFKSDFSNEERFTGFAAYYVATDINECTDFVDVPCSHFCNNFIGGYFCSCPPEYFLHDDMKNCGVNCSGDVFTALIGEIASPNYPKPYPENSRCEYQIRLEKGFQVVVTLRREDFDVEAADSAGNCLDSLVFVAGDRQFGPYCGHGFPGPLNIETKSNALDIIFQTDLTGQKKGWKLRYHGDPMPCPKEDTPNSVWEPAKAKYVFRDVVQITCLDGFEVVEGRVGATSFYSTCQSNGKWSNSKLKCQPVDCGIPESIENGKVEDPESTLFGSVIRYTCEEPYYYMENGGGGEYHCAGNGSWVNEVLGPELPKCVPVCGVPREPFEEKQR
Assay: Human C1s enzyme assay
Assay type: biochemical
Conditions: human complement C1s enzyme 1.16 nM, substrate Z-L-Lys-SBzl 100 μM, 5 min preincubation; read-out: IC50 (Stars), C1s Inhibiting Activity
Procedure, shortened: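 Serum-purified human C1s (1.16 nM final) preincubated 5 min at room temperature with compound in 50 mM Tris, 1 M NaCl, pH 7.5. Z-L-Lys-SBzl and DTNB added at 100 μM each; A405 followed every 30 s for 30 min, and IC50 obtained by nonlinear regression of reaction rates.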

How did the IC50 turn out when `O=C(NCC(=O)N1C[C@H](OC(F)F)C[C@H]1C(=O)NCc1cc2cnccc2[nH]1)c1ccc2c(c1)Oc1ccccc1S2` [Compound 36, (2S,4R)-N-((1H-pyrrolo[3,2-c]pyridin-2-yl)methyl)-4-(difluoromethoxy)-1-((phenoxathiine-3-carbonyl)glycyl)pyrrolidine-2-carboxamide] was run?
Its IC50 is less than 100 nM.

`C[C@@]12C[C@@H]1N(C(=O)CNC(=O)c1ccc3c(c1)Oc1ccccc1S3)[C@H](C(=O)NCc1cc3cnccc3[nH]1)C2` [Compound 44, (1S,3S,5S)-N-((1H-pyrrolo[3,2-c]pyridin-2-yl)methyl)-5-methyl-2-((phenoxathiine-3-carbonyl)glycyl)-2-azabicyclo[3.1.0]hexane-3-carboxamide] was tested. Which IC50 did it give?
The IC50 was less than 100 nM.

Which IC50 does the source give for `O=C(NCC(=O)N1C[C@H](OC(F)F)C[C@H]1C(=O)NCc1cc2cnccc2s1)c1cccc(Oc2ccccc2)c1` [Compound 235, (2S,4R)-4-(difluoromethoxy)-1-((3-phenoxybenzoyl)glycyl)-N-(thieno[3,2-c]pyridin-2-ylmethyl)pyrrolidine-2-carboxamide] here?
Its IC50 is less than 100 nM.

With `Cc1ccc(Oc2cccc(C(=O)NCC(=O)N3C[C@H](OC(F)F)C[C@H]3C(=O)NCc3cc4c(s3)CCNC4)c2)c(F)c1` [Compound 338, (2S,4R)-4-(difluoromethoxy)-1-((3-(2-fluoro-4-methylphenoxy)benzoyl)glycyl)-N-((4,5,6,7-tetrahydrothieno[3,2-c]pyridin-2-yl)methyl) pyrrolidine-2-carboxamide] as the molecule, how does the IC50 read?
The IC50 was less than 100 nM.

`O=C(NCC(=O)N1CC2(C[C@H]1C(=O)NCc1cc3cnccc3[nH]1)OCCO2)c1ccc2sc3ccccc3c2c1` [Compound 212, (S)-N-((1H-pyrrolo[3,2-c]pyridin-2-yl)methyl)-7-((dibenzo[b,d]thiophene-2-carbonyl)glycyl)-1,4-dioxa-7-azaspiro[4.4]nonane-8-carboxamide] was tested. Which IC50 did it give?
The IC50 was less than 100 nM.

How did the IC50 turn out when `Cc1ccc(Oc2cccc(C(=O)NCC(=O)N3C[C@H](OC(F)F)C[C@H]3C(=O)NCc3cc4cnccc4[nH]3)c2)c(C)c1` [Compound 298, (2S,4R)-N-((1H-pyrrolo[3,2-c]pyridin-2-yl)methyl)-4-(difluoromethoxy)-1-((3-(2,4-dimethylphenoxy)benzoyl)glycyl) pyrrolidine-2-carboxamide] was run?
Its IC50 is less than 100 nM.

For `C[C@@]12C[C@@H]1N(C(=O)CNC(=O)c1ccc(Oc3ccccc3)cn1)[C@H](C(=O)NCc1cc3cnccc3[nH]1)C2` [Compound 136, (1S,3S,5S)-N-((1H-pyrrolo[3,2-c]pyridin-2-yl)methyl)-5-methyl-2-((5-phenoxypicolinoyl)glycyl)-2-azabicyclo[3.1.0]hexane-3-carboxamide], which IC50 is on record?
The IC50 was 100 to 1000 nM.

With `C[C@@]12C[C@@H]1N(C(=O)CNC(=O)CCCOc1ccccc1)[C@H](C(=O)NCc1ccc3c(c1)CNC3)C2` [Compound 67, (1S,3S,5S)-N-(isoindolin-5-ylmethyl)-5-methyl-2-((4-phenoxybutanoyl)glycyl)-2-azabicyclo[3.1.0]hexane-3-carboxamide] as the molecule, how does the IC50 read?
The IC50 was 100 to 1000 nM.

For `Cc1ccc(Oc2cccc(C(=O)NCC(=O)N3C[C@H](OC(F)F)C[C@H]3C(=O)NCc3cc4c(s3)CNCC4)c2)c(F)c1` [Compound 339, (2S,4R)-4-(difluoromethoxy)-1-((3-(2-fluoro-4-methylphenoxy)benzoyl)glycyl)-N-((4,5,6,7-tetrahydrothieno[2,3-c]pyridin-2-yl)methyl) pyrrolidine-2-carboxamide], which IC50 is on record?
Its IC50 is less than 100 nM.

For `C[C@@H](NC(=O)[C@@H]1C[C@@H](OC(F)F)CN1C(=O)CNC(=O)c1ccc2c(c1)Oc1ccccc1S2)c1cc2cnccc2s1` [Compound 208, (2S,4R)-4-(difluoromethoxy)-1-((phenoxathiine-3-carbonyl)glycyl)-N-((R)-1-(thieno[3,2-c]pyridin-2-yl)ethyl)pyrrolidine-2-carboxamide], which IC50 is on record?
The IC50 was less than 100 nM.

How did the IC50 turn out when `O=C(NCC(=O)N1CC2(C[C@H]1C(=O)NCc1cc3cncnc3[nH]1)OCCO2)c1ccc2c(c1)-c1ccccc1C2(F)F` [Compound 16, (S)-N-((7H-pyrrolo[2,3-d]pyrimidin-6-yl)methyl)-7-((9,9-difluoro-9H-fluorene-3-carbonyl)glycyl)-1,4-dioxa-7-azaspiro[4.4]nonane-8-carboxamide] was run?
Its IC50 is greater than 1000 nM.

Which IC50 does the source give for `O=C(NCC(=O)N1C[C@H](OC(F)F)C[C@H]1C(=O)NCc1cc2cnccc2[nH]1)c1ccc(-c2ccccn2)s1` [Compound 381, (2S,4R)-4-(difluoromethoxy)-1-[2-[[5-(2-pyridyl)thiophene-2-carbonyl]amino]acetyl]-N-(1H-pyrrolo[3,2-c]pyridin-2-ylmethyl)pyrrolidine-2-carboxamide] here?
Its IC50 is less than 100 nM.

`O=C(NCC(=O)N1CC2(C[C@H]1C(=O)NCc1cc3ccccc3[nH]1)OCCO2)c1ccc2c(c1)Oc1ccccc1S2` [Compound 29, (S)-N-((1H-indol-2-yl)methyl)-7-((phenoxathiine-3-carbonyl)glycyl)-1,4-dioxa-7-azaspiro[4.4]nonane-8-carboxamide] was tested. Which IC50 did it give?
The IC50 was greater than 1000 nM.

`O=C(NCC(=O)N1C[C@H](OC(F)F)C[C@H]1C(=O)NCc1cc2cnccc2[nH]1)c1cccc(Oc2ccccc2F)c1` [Compound 299, (2S,4R)-N-((1H-pyrrolo[3,2-c]pyridin-2-yl)methyl)-4-(difluoromethoxy)-1-((3-(2-fluorophenoxy)benzoyl)glycyl) pyrrolidine-2-carboxamide] was tested. Which IC50 did it give?
Its IC50 is less than 100 nM.

For `COC[C@@]1(F)C[C@@H](C(=O)N[C@@H](C)c2cc3cnccc3[nH]2)N(C(=O)CNC(=O)c2ccc(Oc3ccccc3)cc2)C1` [Compound 21, (2S,4R)-N-((S)-1-(1H-pyrrolo[3,2-c]pyridin-2-yl)ethyl)-4-fluoro-4-(methoxymethyl)-1-((4-phenoxybenzoyl)glycyl)pyrrolidine-2-carboxamide], which IC50 is on record?
The IC50 was greater than 1000 nM.

`C[C@H]1C[C@@H](C(=O)N[C@H](C)c2cc3cnccc3[nH]2)N(C(=O)CNC(=O)c2ccc3c(c2)-c2ccccc2C3(F)F)C1` [Compound 166, (2S,4S)-N-((R)-1-(1H-pyrrolo[3,2-c]pyridin-2-yl)ethyl)-1-((9,9-difluoro-9H-fluorene-3-carbonyl)glycyl)-4-methylpyrrolidine-2-carboxamide] was tested. Which IC50 did it give?
The IC50 was less than 100 nM.

How did the IC50 turn out when `CS(=O)(=O)[C@@H]1C[C@@H](C(=O)N[C@H](CO)c2cc3cnccc3[nH]2)N(C(=O)CNC(=O)c2ccc3c(c2)Oc2ccccc2S3)C1` [Compound 99, (2S,4R)-N-((S)-2-hydroxy-1-(1H-pyrrolo[3,2-c]pyridin-2-yl)ethyl)-4-(methylsulfonyl)-1-((phenoxathiine-3-carbonyl)glycyl) pyrrolidine-2-carboxamide] was run?
The IC50 was less than 100 nM.

How did the IC50 turn out when `C[C@@]12C[C@@H]1N(C(=O)CNC(=O)c1cccc(Oc3ccccc3)c1)[C@H](C(=O)NCc1cc3cnccc3[nH]1)C2` [Compound 152, (1S,3S,5S)-N-((1H-pyrrolo[3,2-c]pyridin-2-yl)methyl)-5-methyl-2-((3-phenoxybenzoyl)glycyl)-2-azabicyclo[3.1.0]hexane-3-carboxamide] was run?
Its IC50 is less than 100 nM.

`COC[C@@]1(F)C[C@@H](C(=O)NCc2cc3cnccc3[nH]2)N(C(=O)CNC(=O)c2ccc(Oc3ccccc3)cc2)C1` [Compound 30, (2S,4R)-N-((1H-pyrrolo[3,2-c]pyridin-2-yl)methyl)-4-fluoro-4-(methoxymethyl)-1-((4-phenoxybenzoyl)glycyl) pyrrolidine-2-carboxamide] was tested. Which IC50 did it give?
The IC50 was less than 100 nM.

Reference: patent US20260062443A1 (ALEXION PHARMACEUTICALS, INC., priority 2022, published 2026)
